One assay has as its system 22Rv1 cells. Briefly: 22Rv1 tumor model in male nude mice. Format: in vivo. As to conditions: 10 mg/kg i.p., three times/week. As to the method: The therapeutic effects of PCNA-I1 were evaluated in LNCaP cells and 22Rv1 tumor models. LNCaP or 22Rv1 cells (1-2×10^6 cells in gelfoam) were implanted into the subcutis of male nude mice. From four to five days later, tumor-bearing mice were intraperitoneally injected with 10 mg/kg or 50 mg/kg of PCNA-I1. The therapy was continued at three times/week until termination of experiments. Control and treated tumor-bearing mice were monitored daily. Mouse body weight was recorded for toxicity evaluation twice a week and tumor size was measured using calipers twice a week. The experiments were terminated when mice in control groups were moribund. Additionally, to further evaluate potential liver and renal toxicity of PCNA-I1, the blood of tumor-bearing mice were sampled after the treatment with PCNA-I1 for 8 weeks.

Another assay deals with GFP-PCNA. The experiment in a line: GFP-PCNA chromatin association, fluorescence microscopy. Format: cell-based, Human. As to conditions: PC-3 transfected with pGFP-PCNA; 4 H, 0.5 μM PCNA-I1 or 2 μM PCNA-I2; FIG. 11. The protocol:
Additionally, PC-3 cells were transfected for 24 H with pGFP-PCNA. The cells were then treated for 4 H with 0.5 μM of PCNA-I1 or 2 μM of PCNA-I2. The intact GFP-PCNA expressing cells were observed under a fluorescent microscope and recorded. After treatment with a buffer with 0.5% NP-40 buffer B, the cells were examined and recorded.

For the next assay, the target named is T1, PCNA (Homo sapiens, UniProt P12004).
T1 construct: endogenous PCNA was knocked down with transfection of PCNA-specific siRNA; endogenous in cells; host or cells: PC-3
T1 sequence (P12004 whole entry): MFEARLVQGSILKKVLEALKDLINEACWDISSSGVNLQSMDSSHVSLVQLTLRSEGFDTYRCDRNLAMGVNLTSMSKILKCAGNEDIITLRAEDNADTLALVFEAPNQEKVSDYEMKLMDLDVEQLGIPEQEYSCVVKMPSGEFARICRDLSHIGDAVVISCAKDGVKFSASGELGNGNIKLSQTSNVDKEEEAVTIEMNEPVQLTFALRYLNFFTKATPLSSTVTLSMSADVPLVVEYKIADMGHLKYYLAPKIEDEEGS
The experiment in a line: Euchromatin- and heterochromatin-associated PCNA. The note with it: PC-3, 0.5 μM, 8 H; FIG. 12. The assay is classed as cell-based. The protocol:
Differential effects of PCNA-I1 on the level of euchromatin- (often under active gene transcription) and heterchromatin (often under limited gene transcription) associated PCNA were also investigated. Specifically, PC-3 cells were treated for 8 H with 0.5 μM of PCNA-I1 and PCNA was extracted by procedures known in the art with a combination of limited digestion with micrococcal nuclease and treatment with EDTA to obtain total (S1), euchromatin-associated (S2), and heterochromatin-associated (S3). The extracts were subjected to western blotting analysis.

`Cc1ccsc1C(=O)N/N=C/c1ccc2ccccc2c1O` [PCNA-I1]: the “Tumor growth, 22Rv1 model” value in the assay on 22Rv1 cells is reported as “retarded tumor growth”. Further, in the assay with GFP-PCNA, the “Level of chromatin-associated GFP-PCNA” value was “reduced the level of chromatin-associated GFP-PCNA” and the “Total intensity of GFP-PCNA” value is “did not significantly alter the total intensity of GFP-PCNA”. At PCNA, the “Euchromatin- and heterochromatin-associated PCNA” value is “reduced both euchromatin- and heterochromatin protein 1α”.

The values are drawn from US9895363B2, “Methods for modulating function of proliferating cell nuclear antigen (PCNA) and treating cancer with PCNA-targeting compounds” (University of Cincinnati, priority 2010, dated 2018).
